Measurements: the SangsterLogP compilation

| SMILES | logP |
| --- | --- |
| O=c1[nH]c2ccccc2n1C1CCN(CCCC(c2ccc(F)cc2)c2ccc(F)cc2)CC1 | 6.06 |
| COc1cc(C(=O)NCc2ccc(OCCN(C)C)cc2)cc(OC)c1OC | 2.04 |
| NC(=O)C1(N2CCCCC2)CCN(CCCC(=O)c2ccc(F)cc2)CC1 | 2.68 |
| C=CCN1CCCC1CNC(=O)c1cc2[nH]nnc2cc1OC (stereo unspecified) | 2.22 |
| CCN1CCCC1CNC(=O)c1cc(S(=O)(=O)CC)ccc1OC (stereo unspecified) | 2.05 |
| CCN1CCCC1CNC(=O)c1cc(S(=O)(=O)CC)c(N)cc1OC (stereo unspecified) | 2.42 |
| COc1ccc(S(N)(=O)=O)cc1C(=O)NCC1CCCN1C (stereo unspecified) | 1.01 |
| COc1cccc(C(=O)NC2C[C@H]3CC[C@@H](C2)N3Cc2ccccc2)c1OC (stereo partly specified) | 3.07 |
| O=C(NCCN1CCC(n2c(=O)[nH]c3cc(Cl)ccc32)CC1)c1ccc(F)cc1 | 4.02 |
| COc1ccc(S(N)(=O)=O)cc1C(=O)NCC1CCCN1Cc1ccc(F)cc1 (stereo unspecified) | 2.08 |
| OCCN1CCN(CCCN2c3ccccc3Sc3ccc(C(F)(F)F)cc32)CC1 | 4.55 |
